Data published in US6743800B1, “Naphthyridine derivatives, processes for their preparation, their use and pharmaceutical compositions comprising them” (Aventis Pharma Deutschland GmbH, priority 1999, dated 2004).

What was measured:
[1] = molecular target: T1, human vitronectin receptor αvβ3 (Homo sapiens, UniProt P05106+P06756); test: Kistrin binding assay (αvβ3 ELISA test, K/VnR); conditions: inhibition of binding of kistrin to human vitronectin receptor αvβ3, ELISA
T1 construct: Human vitronectin receptor is obtained from the human placenta according to the method of Pytela et al; from tissue; host or cells: human placenta (alternative: 293 cells co-transfected with αv and β3 DNA)
From the text: The inhibition of the binding of kistrin to human vitronectin receptor (VnR) described below is a test method by which the antagonistic action of the compounds of the invention on the vitronectin receptor αvβ3 can be determined (αvβ3 ELISA Test; the test method is abbreviated as “K/VnR” in the listing of the test results).
Kistrin is purified according to the methods of Dennis et al., as described in Proc. Natl. Acad. Sci. USA 87 (1989) 2471 and Proteins: Structure, Function and Genetics 15 (1993) 312.
Purification of Human Vitronectin Receptor (αvβ3)
Human vitronectin receptor is obtained from the human placenta according to the method of Pytela et al., Methods Enzymol. 144 (1987) 475. Human vitronectin receptor αvβ3 can also be obtained from some cell lines (for example from 293 cells, a human embryonic kidney cell line) which are co-transfected with DNA sequences for both subunits αv and β3 of the vitronectin receptor. The subunits are extracted with octyl glycoside and then chromatographed through concanavalin A, heparin-Sepharose and S-300.
Murine monoclonal antibodies which are specific for the β3 subunits of the vitronectin receptor, are prepared according to the method of Newman et al., Blood, 1985, 227, or by a similar process. The rabbit Fab 2 anti-mouse Fc conjugate to horseradish peroxidase (anti-mouse Fc HRP) was obtained from Pel Freeze (Catalog No. 715 305-1).
The ability of substances to inhibit the binding of kistrin to the vitronectin receptor can be determined using an ELISA test. For this purpose, Nunc 96-well microtiter plates are coated with a solution of kistrin (0.002 mg/ml) according to the method of Dennis et al., as described in Proteins: Structure, Function and Genetics 15 (1993) 312. The plates are then washed twice with PBS/0.05% Tween-20 and blocked by incubating (60 min) with bovine serum albumin (BSA, 0.5%, RIA grade or better) in buffer solution (Tris-HCl (50 mM), NaCl (100 mM), MgCl2 (1 mM), CaCl2 (1 mM), MnCl2 (1 mM), pH 7). Solutions of known inhibitors and of the test substances are prepared in concentrations from 2×10^−12 to 2×10^−6 mol/l in assay buffer (BSA (0.5%, RIA grade or better); Tris-HCl (50 mM); NaCl (100 mM), MgCl2 (1 mM), CaCl2 (1 mM), MnCl2 (1 mM), pH 7). The blocked plates are emptied, and in each case 0.025 ml of this solution which contains a defined concentration (2×10^−12 to 2×10^−6 mol/l) either of a known inhibitor or of a test substance, are added to each well. 0.025 ml of a solution of the vitronectin receptor in assay buffer (0.03 mg/ml) is pipetted into each well of the plate and the plate is incubated at room temperature for 60-180 min on a shaker. In the meantime, a solution (6 ml/plate) of a murine monoclonal antibody specific for the β3 subunit of the vitronectin receptor is prepared in assay buffer (0.0015 mg/ml). A second rabbit antibody (0.001 ml of stock solution/6 ml of the murine monoclonal anti-β3 antibody solution) which is an anti-mouse Fc HRP antibody conjugate is added to this solution, and this mixture of murine anti-β3 antibody and rabbit anti-mouse Fc HRP antibody conjugate is incubated during the time of the receptor-inhibitor incubation. The test plates are washed four times with PBS solution which contains 0.05% Tween-20, and in each case 0.05 ml/well of the antibody mixture is pipetted into each well of the plate and incubated for 60-180 min. The plate is washed four times with PBS/0.05% Tween-20 and then developed with 0.05 ml/well of a PBS solution which contains 0.67 mg/ml of o-phenylenediamine and 0.012% of H2O2 . Alternatively to this, o-phenylenediamine can be employed in a buffer (pH 5) which contains Na3PO4 and citric acid. The color development is stopped using 1 N H2SO4 (0.05 ml/well). The absorption for each well is measured at 492-405 nm and the data are evaluated by standard methods.

[2] = molecular target: 293 cells cotransfected with αv and β3 subunits of the vitronectin receptor αvβ3 (Homo sapiens, UniProt P05106+P06756); test: Vitronectin/293 cell test (inhibition of binding of 293 cells to human vitronectin); type: cell-based; conditions: inhibition of binding of αvβ3-expressing 293 cells to human vitronectin; read-out: Vn/293 cell test IC50
Procedure: 2) Vitronectin/293 Cell Test
In this test the inhibition of binding of 293 cells to human vitronectin (Vn) by the compounds of the invention is determined (the test method is abbreviated as Vn/293 cell test in the listing of the test results).
Purification of Human Vitronectin
Human vitronectin was isolated from human plasma and purified by affinity chromatography according to the method of Yatohgo et al., Cell Structure and Function 23 (1988) 281.
293 cells, a human embryonic kidney cell line, which were cotransfected with DNA sequences for the αv and β3 subunits of the vitronectin receptor αvβ3, were selected for a high rate of expression (>500,000 αvβ3 receptors/cell) according to the FACS method. The selected cells were cultured and sorted again by means of FACS in order to obtain a stable cell line (15 D) with expression rates >1,000,000 copies of αvβ3 per cell.
A Linbro 96-well tissue culture plate with a flat bottom was coated overnight at 4° C. with human vitronectin (0.01 mg/ml, 0.05 ml/well) in phosphate-buffered saline solution (PBS) and then blocked with 0.5% strength BSA (bovine serum albumin). Solutions of the test substances from 10^−10 mol/l to 2×10^−3 mol/l in glucose-containing DMEM medium were prepared and 0.05 ml/well of the solution were added to the plate in each case. The cells which expressed high levels of αvβ3 (for example 15 D) were suspended in glucose-containing DMEM medium and the suspension was adjusted to a content of 25,000 cells/0.05 ml of medium. 0.05 ml of this cell suspension was added to each well and the plate was incubated at 37° C. for 90 min. The plate was washed 3 times with warm PBS in order to remove unbound cells. The bound cells were lyzed in citrate buffer (25 mM, pH 5.0) which contained 0.25% Triton X-100. The hexoseamidase substrate p-nitrophenyl-N-acetyl-β-D-glucosaminide was then added and the plate was incubated at 37° C. for 90 min. The reaction was stopped with a glycine (50 mM)/EDTA (5 mM) buffer (pH 10.4) and the absorption of each well was measured at 405 to 650 nm. The data were analyzed according to standard methods.

[3] = system: bone resorption by osteoclasts; test: Pit Assay (osteoclast resorption test); type: cell-based; conditions: inhibition of bone resorption
From the text: The inhibition of bone resorption by the compounds of the invention can be determined, for example, with the aid of an osteoclast resorption test (“Pit Assay”), for example analogously to WO-A-95/32710 which is incorporated herein by reference.

T1 sequence (P06756 31-889 limits assumed): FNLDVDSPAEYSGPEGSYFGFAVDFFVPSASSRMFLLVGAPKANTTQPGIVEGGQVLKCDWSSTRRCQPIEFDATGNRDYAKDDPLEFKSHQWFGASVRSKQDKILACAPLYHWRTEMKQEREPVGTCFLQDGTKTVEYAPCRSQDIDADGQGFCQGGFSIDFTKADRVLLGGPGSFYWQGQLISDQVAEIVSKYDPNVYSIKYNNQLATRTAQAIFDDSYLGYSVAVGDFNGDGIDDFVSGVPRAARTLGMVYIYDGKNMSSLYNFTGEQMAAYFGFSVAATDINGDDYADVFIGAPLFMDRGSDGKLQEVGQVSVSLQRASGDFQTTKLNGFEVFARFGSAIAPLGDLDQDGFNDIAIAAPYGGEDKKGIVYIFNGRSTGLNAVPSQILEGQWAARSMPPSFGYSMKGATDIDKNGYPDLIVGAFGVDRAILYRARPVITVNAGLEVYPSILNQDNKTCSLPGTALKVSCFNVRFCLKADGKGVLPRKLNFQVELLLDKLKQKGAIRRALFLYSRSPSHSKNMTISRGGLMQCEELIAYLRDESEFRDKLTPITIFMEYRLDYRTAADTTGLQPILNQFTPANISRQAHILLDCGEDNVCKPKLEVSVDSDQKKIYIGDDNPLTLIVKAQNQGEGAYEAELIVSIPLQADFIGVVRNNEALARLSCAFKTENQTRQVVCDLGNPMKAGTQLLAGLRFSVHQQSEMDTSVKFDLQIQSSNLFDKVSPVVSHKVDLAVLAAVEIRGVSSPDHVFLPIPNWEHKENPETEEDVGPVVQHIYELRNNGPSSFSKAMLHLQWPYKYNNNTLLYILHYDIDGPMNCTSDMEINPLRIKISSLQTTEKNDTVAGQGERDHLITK
T1 sequence (P06756 891-1048 partner limits assumed): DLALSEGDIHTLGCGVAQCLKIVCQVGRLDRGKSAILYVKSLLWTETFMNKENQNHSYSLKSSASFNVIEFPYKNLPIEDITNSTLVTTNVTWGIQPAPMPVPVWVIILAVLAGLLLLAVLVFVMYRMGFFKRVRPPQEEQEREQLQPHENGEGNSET
T1 sequence (P05106 27-788): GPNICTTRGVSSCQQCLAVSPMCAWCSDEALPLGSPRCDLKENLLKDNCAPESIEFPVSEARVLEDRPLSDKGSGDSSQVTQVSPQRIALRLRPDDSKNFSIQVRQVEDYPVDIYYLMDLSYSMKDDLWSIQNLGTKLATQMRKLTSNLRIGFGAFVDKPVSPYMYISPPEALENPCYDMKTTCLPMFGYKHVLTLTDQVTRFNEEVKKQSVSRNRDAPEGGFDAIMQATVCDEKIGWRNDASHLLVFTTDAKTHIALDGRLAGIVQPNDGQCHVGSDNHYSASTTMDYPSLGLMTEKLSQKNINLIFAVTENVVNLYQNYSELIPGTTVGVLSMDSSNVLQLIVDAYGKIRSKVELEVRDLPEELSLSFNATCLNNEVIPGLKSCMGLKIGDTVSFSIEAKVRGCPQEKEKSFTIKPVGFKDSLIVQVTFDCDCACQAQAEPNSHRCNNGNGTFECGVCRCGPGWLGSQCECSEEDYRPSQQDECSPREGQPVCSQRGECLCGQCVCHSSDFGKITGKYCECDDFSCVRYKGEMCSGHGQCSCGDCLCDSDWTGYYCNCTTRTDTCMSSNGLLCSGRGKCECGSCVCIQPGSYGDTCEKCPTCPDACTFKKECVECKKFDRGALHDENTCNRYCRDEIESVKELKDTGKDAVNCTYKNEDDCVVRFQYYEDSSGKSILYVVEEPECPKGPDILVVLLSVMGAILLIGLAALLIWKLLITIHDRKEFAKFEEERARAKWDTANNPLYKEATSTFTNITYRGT
Sequence of 293 cells cotransfected with αv and β3 subunits of the vitronectin receptor αvβ3 (P05106 whole entry): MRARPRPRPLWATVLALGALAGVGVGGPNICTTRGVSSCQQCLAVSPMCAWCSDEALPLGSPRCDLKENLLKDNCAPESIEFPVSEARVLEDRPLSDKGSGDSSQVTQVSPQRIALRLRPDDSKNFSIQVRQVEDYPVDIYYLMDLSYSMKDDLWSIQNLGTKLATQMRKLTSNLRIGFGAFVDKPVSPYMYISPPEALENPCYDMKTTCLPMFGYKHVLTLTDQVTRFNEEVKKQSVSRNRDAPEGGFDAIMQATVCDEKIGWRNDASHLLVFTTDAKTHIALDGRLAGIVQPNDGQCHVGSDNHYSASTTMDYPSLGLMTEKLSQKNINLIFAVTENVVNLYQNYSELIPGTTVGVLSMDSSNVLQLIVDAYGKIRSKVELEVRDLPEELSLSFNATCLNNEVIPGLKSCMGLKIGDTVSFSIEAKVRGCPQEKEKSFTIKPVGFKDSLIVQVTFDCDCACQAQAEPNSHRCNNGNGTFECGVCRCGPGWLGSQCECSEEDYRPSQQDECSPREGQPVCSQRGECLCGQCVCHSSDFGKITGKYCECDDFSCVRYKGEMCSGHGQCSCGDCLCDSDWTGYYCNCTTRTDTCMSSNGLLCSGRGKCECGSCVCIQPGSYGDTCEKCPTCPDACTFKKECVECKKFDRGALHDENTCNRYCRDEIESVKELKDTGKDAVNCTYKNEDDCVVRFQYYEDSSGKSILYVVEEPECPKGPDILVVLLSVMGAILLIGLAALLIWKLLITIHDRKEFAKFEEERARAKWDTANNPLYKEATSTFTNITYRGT
Sequence of 293 cells cotransfected with αv and β3 subunits of the vitronectin receptor αvβ3 (P06756 whole entry): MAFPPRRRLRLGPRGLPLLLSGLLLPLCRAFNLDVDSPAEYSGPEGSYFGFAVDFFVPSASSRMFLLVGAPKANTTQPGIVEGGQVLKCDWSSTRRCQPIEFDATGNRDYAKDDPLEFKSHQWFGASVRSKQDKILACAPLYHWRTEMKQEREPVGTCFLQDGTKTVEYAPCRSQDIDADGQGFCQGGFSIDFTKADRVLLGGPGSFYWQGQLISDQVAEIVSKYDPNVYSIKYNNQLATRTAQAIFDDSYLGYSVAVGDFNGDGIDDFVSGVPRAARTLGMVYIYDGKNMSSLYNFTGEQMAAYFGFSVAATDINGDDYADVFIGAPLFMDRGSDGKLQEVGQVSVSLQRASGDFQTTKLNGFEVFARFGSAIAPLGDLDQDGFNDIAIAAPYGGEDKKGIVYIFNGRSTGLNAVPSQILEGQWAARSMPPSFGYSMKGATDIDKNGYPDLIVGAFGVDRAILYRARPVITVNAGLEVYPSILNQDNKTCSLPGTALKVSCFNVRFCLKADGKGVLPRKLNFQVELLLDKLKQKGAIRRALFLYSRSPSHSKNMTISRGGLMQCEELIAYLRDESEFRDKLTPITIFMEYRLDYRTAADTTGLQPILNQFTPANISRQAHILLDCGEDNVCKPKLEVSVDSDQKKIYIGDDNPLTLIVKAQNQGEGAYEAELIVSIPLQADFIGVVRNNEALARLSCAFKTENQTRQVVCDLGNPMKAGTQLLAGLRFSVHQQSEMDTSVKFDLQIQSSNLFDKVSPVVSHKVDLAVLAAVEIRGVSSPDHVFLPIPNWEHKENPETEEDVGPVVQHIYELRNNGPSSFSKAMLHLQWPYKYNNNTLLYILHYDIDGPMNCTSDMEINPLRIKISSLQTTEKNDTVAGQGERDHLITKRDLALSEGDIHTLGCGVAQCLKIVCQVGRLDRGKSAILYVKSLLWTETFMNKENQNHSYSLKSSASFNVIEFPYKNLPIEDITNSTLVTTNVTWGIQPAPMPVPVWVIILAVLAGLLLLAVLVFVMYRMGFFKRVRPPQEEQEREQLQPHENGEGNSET

SMILES	IC50 [1]	IC50 [2]	IC50 [3]
O=C(N[C@@H](Cn1cnc2c(N3CCC(c4ccc5c(n4)NCCC5)CC3)ncnc21)C(=O)O)OCc1ccccc1 [Example 1, (2S)-2-Benzyloxycarbonylamino-3-(6-(4-(5,6,7,8-tetrahydro-[1,8]naphthyridin-2-yl)-piperidin-1-yl)-purin-9-yl)-propionic acid]	10 nM	78 nM	
O=C(O)[C@H](Cn1cnc2c(N3CCC(c4ccc5c(n4)NCCC5)CC3)ncnc21)NS(=O)(=O)c1ccccc1 [Example 2, (2S)-2-Benzenesulfonylamino-3-(6-(4-(5,6,7,8-tetrahydro-[1,8]naphthyridin-2-yl)-piperidin-1-yl)-purin-9-yl)-propionic acid]	4.8 nM	23 nM	
O=C(O)[C@H](Cn1cnc2c(N3CCC(c4ccc5c(n4)NCCC5)CC3)ncnc21)NS(=O)(=O)c1ccc(Cl)cc1 [Example 3, (2S)-2-(4-Chlorobenzenesulfonylamino)-3-(6-(4-(5,6,7,8-tetrahydro-[1,8]naphthyridin-2-yl)-piperidin-1-yl)-purin-9-yl)-propionic acid]	5.1 nM	15 nM	0.3 nM
O=C(O)[C@H](Cn1cnc2c(N3CCC(c4ccc5c(n4)NCCC5)CC3)ncnc21)NS(=O)(=O)c1cccc2ccccc12 [Example 4, (2S)-2-(Naphthalene-1-sulfonylamino)-3-(6-(4-(5,6,7,8-tetrahydro-[1,8]naphthyridin-2-yl)-piperidin-1-yl)-purin-9-yl)-propionic acid]	6.4 nM	24 nM	< 10 nM
O=C(O)[C@H](Cn1cnc2c(N3CCC(c4ccc5c(n4)NCCC5)CC3)ncnc21)NS(=O)(=O)c1ccc(C(F)(F)F)cc1 [Example 5, (2S)-3-(6-(4-(5,6,7,8-Tetrahydro-[1,8]naphthyridin-2-yl)-piperidin-1-yl)-purin-9-yl)-2-(4-trifluoromethylbenzenesulfonylamino)-propionic acid]	5 nM	22 nM	
CCCCS(=O)(=O)N[C@@H](Cn1cnc2c(N3CCC(c4ccc5c(n4)NCCC5)CC3)ncnc21)C(=O)O [Example 6, (2S)-2-(Butane-1-sulfonylamino)-3-(6-(4-(5,6,7,8-tetrahydro-[1,8]naphthyridin-2-yl)-piperidin-1-yl)-purin-9-yl)-propionic acid]	18 nM	115 nM	
